Assay results from patent US20180111893A1, “POLYCATIONIC AMPHIPHILES AND POLYMERS THEREOF AS ANTIMICROBIAL AGENTS AND METHODS USING SAME” (Temple University-Of The Commonwealth System of Higher …, priority 2015, published 2018).

How the values were obtained:
[1] = tested on: Staphylococcus aureus (MSSA) biofilms; test: Minimum biofilm eradication concentration (MBEC), regrowth assay; format: cell-based; parameters: MBEC MSSA: unit not given here; conditions: Table 5; regrowth OD under 0.1 (italics: OD < 0.5)
Protocol: (§1) A regrowth assay was used to establish the MBEC of a compound to evaluate the antibiofilm activity. See also H. Ceri, M. Olson, D. Morck, D. Storey, R. Read, A. Buret, B. Olson, Methods Enzymol. 2001, 337, 377, which is incorporated by reference herein in its entirety.
(§2) To each well of a flat-bottomed 96-well plate (Corning 3370), 8 μL of overnight bacterial culture was brought to a volume of 200 μL with fresh media (BHI for MSSA and MRSA). Plates were incubated statically for 24 hours at 37° C. to establish biofilms. After 24 hours, the wells were carefully emptied by inverting the plate and gently shaking. A pre-mixed solution of media and compound stock solution was added to each well and plates were incubated at 37° C. 16 hours after pre-established biofilms were treated with compound, the media from each well was removed, biofilms were washed three times with 200 μL PBS to remove planktonic cells, and biofilms were incubated overnight at 37° C. in 200 μL of fresh media to allow any viable cells to continue growing. The wells were then vigorously pipetted to resuspend the biofilm cells and the OD at 595 nm was measured using a plate reader (POLARstar Omega, BMG Labtech). Biofilms reaching a final OD of less than 0.1 were considered eradicated and the lowest concentration of antibiotic corresponded to the MBEC. Four replicates were completed for each concentration of compound as well as positive and negative controls.

[2] = tested on: MRSA biofilms (S. aureus USA300-0114); test: as above; format: cell-based, Staphylococcus aureus; parameters: MBEC MRSA: unit not given here; conditions: Table 5; regrowth OD under 0.1 (italics: OD < 0.5)
Protocol: as §1, §2

[3] = tested on: community-acquired methicillin-resistant Staphylococcus aureus CA-MRSA (USA300-0114); test: Minimum inhibitory concentration (MIC); format: cell-based; parameters: MIC MRSA: unit not given here; conditions: for MIC CA-MRSA: Table 6
Protocol: (§3) As used herein, the term “minimum inhibitory concentration (MIC)” refers to the lowest concentration of an antimicrobial agent that will inhibit the visible growth of a microorganism after overnight incubation. MIC values against bacteria, for example, the Gram-positive Staphylococcus aureus and Enterococcus faecalis and the Gram-negative Escherichia coli and Pseudomonas aeruginosa were determined by standard methods. See also P. A. Wayne, Methods for Dilution Antimicrobial Tests for Bacteria that Grow Aerobically; Approved Standard, Ninth Edition, 2012, CLSI Document M07-A9, Vol. 32 No. 2, which is incorporated by reference herein in its entirety.
(§4) Compounds were serially diluted two-fold from a 10% DMSO/aqueous stock solution to yield twelve test concentrations. Overnight S. aureus, E. faecalis, E. coli, P. aeruginosa, CA-MRSA, and HA-MRSA cultures diluted to ca. 10^6 cfu/mL in Mueller-Hinton media and 100 μL were inoculated into each well of a U-bottom 96-well plate (BD Biosciences, BD351177) containing 100 μL of compound solution. Plates were incubated statically at 37° C. for 72 hours upon which time wells were evaluated visually for bacterial growth. The MIC was determined as the lowest concentration of compound resulting in no bacterial growth visible to the naked eye, based on the majority of three independent experiments. Positive and negative DMSO/aqueous solution and media controls were conducted for each trial. See Peng et al., 2011, Chem. Comm. 47:4896-4898.
as §4, with “trial.” for “trial. See Peng et al., 2011, Chem. Comm. 47:4896-4898.”

[4] = tested on: hospital-acquired methicillin-resistant Staphylococcus aureus HA-MRSA (ATCC 33591); test: Minimum inhibitory concentration (MIC); format: cell-based; conditions: Table 6
Protocol: as §3, §4
as §4, with “trial.” for “trial. See Peng et al., 2011, Chem. Comm. 47:4896-4898.”

[5] = tested on: Escherichia coli (MC4100); test: Minimum inhibitory concentration (MIC); format: cell-based
Protocol: as §3, §4
as §4, with “trial.” for “trial. See Peng et al., 2011, Chem. Comm. 47:4896-4898.”

[6] = tested on: Pseudomonas aeruginosa (PAO1); test: Minimum inhibitory concentration (MIC); format: cell-based
Protocol: as §3, §4
as §4, with “trial.” for “trial. See Peng et al., 2011, Chem. Comm. 47:4896-4898.”

[7] = tested on: Enterococcus faecalis (OG1RF); test: Minimum inhibitory concentration (MIC); format: cell-based; conditions: Table 6
Protocol: as §3, §4
as §4, with “trial.” for “trial. See Peng et al., 2011, Chem. Comm. 47:4896-4898.”

[8] = tested on: Staphylococcus aureus (SA; MSSA SH1000); test: Minimum inhibitory concentration (MIC); format: cell-based; parameters: MIC MSSA: unit not given here; conditions: for MIC SA: Table 6
Protocol: as §3, §4
as §4, with “trial.” for “trial. See Peng et al., 2011, Chem. Comm. 47:4896-4898.”

Structure (SMILES)	MBEC MSSA [1]	MBEC MRSA [2]	MIC CA-MRSA [3] [µM]	MIC HA-MRSA [4] [µM]	MIC EC ([5]; Table 6) [µM]	MIC PA ([6]; Table 6) [µM]	MIC EF [7] [µM]	MIC SA [8] [µM]	MIC MRSA ([3]; Table 5, S. aureus USA300-0114)	MIC EC ([5]; Table 5, E. coli MC4100) [mm]	MIC PA ([6]; Table 5, P. aeruginosa PAO1) [mm]	MIC MSSA ([8]; Table 5, S. aureus SH1000)
CCCCCCCCCCCCCCCCCCCC[N+]1(C)CC[N+](C)(C)CC[N+](C)(C)CC1 [C-20,1,1]	>200	>200	–	–	–	–	–	–	–	–	–	–
CCCCCCCCCCCCCCCCCC[N+]1(C)CC[N+](C)(C)CC[N+](C)(C)CC1 [C-18,1,1]	>200	>200	–	–	–	–	–	–	–	–	–	–
CCCCCCCCCCC[N+](C)(C)CCN1CC[N+](C)(CCCCCCCCCCC)CC1 [P-11,0,11]	100	200	–	–	–	–	–	–	–	–	–	–
CCCCCCCCCCCCCCCC[N+]1(C)CC[N+](C)(C)CC[N+](C)(C)CC1 [C-16,1,1]	200	200	–	–	–	–	–	–	–	–	–	–
CCCCCCCCCCCCCCCCCCCC[N+]1(C)CCN(C)CCN(C)CC1.[Br-] [C-20,0,0]	>200	>200	–	–	–	–	–	–	–	–	–	–
CCCCCCCCCCCCCCCCCC[N+]1(C)CCN(C)CCN(C)CC1.[Br-] [C-18,0,0]	200	>200	–	–	–	–	–	–	–	–	–	–
CCCCCCCCCC[N+](C)(C)CCC[N+](C)(CCC[N+](C)(C)CCCCCCCCCC)CCC[N+](C)(C)CCCCCCCCCC [sT-10,10,10,1]	–	–	0.5	0.5	0.5	2	0.5	0.5	–	–	–	–
C=CC[N+](CCC[N+](C)(C)CCCCCCCCCCCCC)(CCC[N+](C)(C)CCCCCCCCCCCCC)CCC[N+](C)(C)CCCCCCCCCCCCC [sT-13,13,13,3A]	–	–	1	1	1	4	1	2	–	–	–	–
CCCCCCCCCCCCCCCC[N+](C)(C)CCCN(CCC[N+](C)(C)CCCCCCCCCCCCCCCC)CCC[N+](C)(C)CCCCCCCCCCCCCCCC.[Br-].[Br-].[Br-] [sT-16,16,16,0]	–	–	4	16	16	32	16	8	–	–	–	–
CCCCCCCCCCCCCC[N+](C)(C)CCC[N+](C)(CCC[N+](C)(C)CCCCCCCCCCCCCC)CCC[N+](C)(C)CCCCCCCCCCCCCC [sT-14,14,14,1]	–	–	2	2	4	32	2	4	–	–	–	–
CCCCCCCCCCCC[N+](C)(C)CCC[N+](CCC[N+](C)(C)CCCCCCCCCCCC)(CCC[N+](C)(C)CCCCCCCCCCCC)Cc1ccccc1 [sT-12,12,12,Bn]	–	–	0.5	0.5	0.5	2	0.5	1	–	–	–	–
CCCCCCCCCCCCCC[N+](C)(C)CCCN(CCC[N+](C)(C)CCCCCCCCCCCCCC)CCC[N+](C)(C)CCCCCCCCCCCCCC [sT-14,14,14,0]	–	–	0.5	2	4	16	2	1	–	–	–	–
CCCCCCCCCCC[N+](C)(C)CCN(CC[N+](C)(C)CCCCCCCCCCC)CC[N+](C)(C)CCCCCCCCCCC [T-11,11,11]	200	>200	–	–	–	–	–	–	1	1	2	0.5
CCCCCCCCCCCC[N+](C)(C)CCCN(CCC[N+](C)(C)CCCCCCCCCCCC)CCC[N+](C)(C)CCCCCCCCCCCC [sT-12,12,12,0]	–	–	0.5	1	1	4	1	0.5	–	–	–	–
CCCCCCCCCCC[N+](C)(C)CCC[N+](C)(CCC[N+](C)(C)CCCCCCCCCCC)CCC[N+](C)(C)CCCCCCCCCCC.[Br-].[Br-].[Br-].[I-] [sT-11,11,11,1]	–	–	≤0.25	0.5	0.25	1	0.25	0.5	–	–	–	–
CCCCCCCCCCCCC[N+](C)(C)CCCN(CCC[N+](C)(C)CCCCCCCCCCCCC)CCC[N+](C)(C)CCCCCCCCCCCCC [sT-13,13,13,0]	–	–	0.5	1	1	8	1	1	–	–	–	–
CCCCCCCCCCCCCCCC[N+]1(C)CCN(C)CCN(C)CC1.[Br-] [C-16,0,0]	>200	>200	–	–	–	–	–	–	–	–	–	–
CCCCCCCCCCCC[N+](C)(C)CCN1CC[N+](C)(CCCCCCCCCCCC)CC1 [P-12,0,12]	200	200	–	–	–	–	–	–	–	–	–	–
CCCCCCCCCC[N+](C)(C)CCCN(CC[N+](C)(C)CCCCCCCCCC)CC[N+](C)(C)CCCCCCCCCC [T-10,10,10]	100	200	–	–	–	–	–	–	–	–	–	–
CCCCCCCC[N+](C)(C)CCCN(CCC[N+](C)(C)CCCCCCCC)CCC[N+](C)(C)CCCCCCCC [sT-8,8,8,0]	–	–	2	32	32	125	32	4	–	–	–	–
